# Test results published in the supplement of paper PMC13380429.
# Columns and labels:
# [1] = tested on: Vero E6; test: cell viability relative to DMSO; higher = less toxic; settings: 72 h
# [2] = tested on: Calu-3; test: as above; settings: 72 h
# [3] = tested on: HepG2; test: as above; settings: 72 h
# [4] = tested on: U2OS; test: as above; settings: 72 h
# [5] = tested on: Caco-2; test: as above; settings: 72 h
# [6] = tested on: A549-ACE2 infected with SARS-CoV-2; test: SARS-CoV-2 infection rate relative to DMSO; higher = more infection; settings: 24 h
# [7] = tested on: A549-ACE2 infected with SARS-CoV-2; test: morphology score (similarity to uninfected cells); higher = more like uninfected cells; settings: 24 h
# [8] = tested on: Vero E6; test: relative viability EC50 (midpoint between 100% and the lowest measured viability); higher = less toxic; settings: 72 h
# [9] = tested on: Calu-3; test: as above; settings: 72 h
# [10] = tested on: HepG2; test: as above; settings: 72 h
# [11] = tested on: U2OS; test: as above; settings: 72 h
# [12] = tested on: Caco-2; test: as above; settings: 72 h
# [13] = tested on: A549-ACE2; test: phospholipidosis EC50; higher = less potent phospholipidosis inducer
# [14] = tested on: A549-ACE2 infected with SARS-CoV-2; test: cell count relative to DMSO; higher = less toxic; settings: 24 h
# [15] = tested on: A549-ACE2; test: drug-induced phospholipidosis relative to tamoxifen; higher = more phospholipidosis
# [16] = tested on: Vero E6; test: drug sensitivity score (DSS) for viability; higher = more toxic; extreme values may be limits of the assay; settings: 72 h
# [17] = tested on: Calu-3; test: as above; settings: 72 h
# [18] = tested on: HepG2; test: as above; settings: 72 h
# [19] = tested on: U2OS; test: as above; settings: 72 h
# [20] = tested on: Caco-2; test: as above; settings: 72 h
smiles,measurement,setting,value
c1cncc(CN2CCC(n3ncc4c(N5CCOCC5)nc(-c5ccc6[nH]ccc6c5)nc43)CC2)c1 [WAY-600],cell viability,[1]; 1 nM,103%
same,cell viability,[1]; 10 nM,104%
same,cell viability,[1]; 100 nM,99.4%
same,cell viability,[1]; 1000 nM,82.2%
same,cell viability,[1]; 10000 nM,25.2%
same,cell viability,[2]; 1 nM,101%
same,cell viability,[2]; 10 nM,94.9%
same,cell viability,[2]; 100 nM,95%
same,cell viability,[2]; 1000 nM,64.8%
same,cell viability,[2]; 10000 nM,27.3%
same,cell viability,[3]; 1 nM,106%
same,cell viability,[3]; 10 nM,112%
same,cell viability,[3]; 100 nM,98.5%
same,cell viability,[3]; 1000 nM,72.2%
same,cell viability,[3]; 10000 nM,2.5%
same,cell viability,[4]; 1 nM,102%
same,cell viability,[4]; 10 nM,98.1%
same,cell viability,[4]; 100 nM,97.8%
same,cell viability,[4]; 1000 nM,89.5%
same,cell viability,[4]; 10000 nM,23%
same,cell viability,[5]; 1 nM,96.4%
same,cell viability,[5]; 10 nM,95.9%
same,cell viability,[5]; 100 nM,102%
same,cell viability,[5]; 1000 nM,70.3%
same,cell viability,[5]; 10000 nM,24.7%
same,SARS-CoV-2 infection rate,[6]; 0.1 µM,103%
same,SARS-CoV-2 infection rate,[6]; 0.3 µM,81%
same,SARS-CoV-2 infection rate,[6]; 1 µM,56%
same,SARS-CoV-2 infection rate,[6]; 3 µM,35%
same,morphology score,[7]; 0.1 µM,0.01
same,morphology score,[7]; 0.3 µM,0.46
same,morphology score,[7]; 1 µM,0.61
same,morphology score,[7]; 3 µM,0.33
same,relative viability EC50,[8],1.59 µM
same,relative viability EC50,[9],1.01 µM
same,relative viability EC50,[10],1.44 µM
same,relative viability EC50,[11],2.07 µM
same,relative viability EC50,[12],1.19 µM
same,phospholipidosis EC50,[13]; 24 h,0.65 µM
same,cell count,[14]; 0.1 µM,102%
same,cell count,[14]; 0.3 µM,101%
same,cell count,[14]; 1 µM,108%
same,cell count,[14]; 3 µM,107%
same,drug-induced phospholipidosis,"[15]; 0.3 µM, 24 h",18.3%
same,drug-induced phospholipidosis,"[15]; 0.3 µM, 48 h",16.7%
same,drug-induced phospholipidosis,"[15]; 0.3 µM, 72 h",17.1%
same,drug-induced phospholipidosis,"[15]; 0.833333 µM, 24 h",55%
same,drug-induced phospholipidosis,"[15]; 0.833333 µM, 48 h",40.1%
same,drug-induced phospholipidosis,"[15]; 0.833333 µM, 72 h",29.6%
same,drug-induced phospholipidosis,"[15]; 3.33333 µM, 24 h",79.8%
same,drug-induced phospholipidosis,"[15]; 3.33333 µM, 48 h",86.2%
same,drug-induced phospholipidosis,"[15]; 6.66667 µM, 24 h",55%
same,drug-induced phospholipidosis,"[15]; 10 µM, 24 h",39.9%
same,drug-induced phospholipidosis,"[15]; 30 µM, 24 h",10.3%
same,drug sensitivity score,[16],6.9
same,drug sensitivity score,[17],8.1
same,drug sensitivity score,[18],9.5
same,drug sensitivity score,[19],6
same,drug sensitivity score,[20],8.2
CNCCCCOc1ccccc1Cc1ccccc1 [bifemelane],cell viability,[1]; 1 nM,109%
same,cell viability,[1]; 10 nM,102%
same,cell viability,[1]; 100 nM,96.8%
same,cell viability,[1]; 1000 nM,100%
same,cell viability,[1]; 10000 nM,89.5%
same,cell viability,[2]; 1 nM,112%
same,cell viability,[2]; 10 nM,104%
same,cell viability,[2]; 100 nM,95.8%
same,cell viability,[2]; 1000 nM,90.1%
same,cell viability,[2]; 10000 nM,104%
same,cell viability,[3]; 1 nM,98.7%
same,cell viability,[3]; 10 nM,101%
same,cell viability,[3]; 100 nM,89.5%
same,cell viability,[3]; 1000 nM,92.7%
same,cell viability,[3]; 10000 nM,85%
same,cell viability,[4]; 1 nM,96.6%
same,cell viability,[4]; 10 nM,91.1%
same,cell viability,[4]; 100 nM,102%
same,cell viability,[4]; 1000 nM,96.5%
same,cell viability,[4]; 10000 nM,92.6%
same,cell viability,[5]; 1 nM,100%
same,cell viability,[5]; 10 nM,101%
same,cell viability,[5]; 100 nM,91.5%
same,cell viability,[5]; 1000 nM,102%
same,cell viability,[5]; 10000 nM,89.3%
same,SARS-CoV-2 infection rate,[6]; 0.3 µM,101%
same,SARS-CoV-2 infection rate,[6]; 3 µM,96%
same,SARS-CoV-2 infection rate,[6]; 10 µM,43%
same,SARS-CoV-2 infection rate,[6]; 30 µM,16%
same,morphology score,[7]; 0.3 µM,-0.03
same,morphology score,[7]; 3 µM,0.43
same,morphology score,[7]; 10 µM,0.7
same,morphology score,[7]; 30 µM,0.69
same,relative viability EC50,[8],> 10 µM
same,relative viability EC50,[9],> 10 µM
same,relative viability EC50,[10],> 10 µM
same,relative viability EC50,[11],> 10 µM
same,relative viability EC50,[12],> 10 µM
same,phospholipidosis EC50,[13]; 24 h,5.4 µM
same,phospholipidosis EC50,[13]; 48 h,5.1 µM
same,phospholipidosis EC50,[13]; 72 h,6.67 µM
same,cell count,[14]; 0.3 µM,100%
same,cell count,[14]; 3 µM,106%
same,cell count,[14]; 10 µM,115%
same,cell count,[14]; 30 µM,110%
same,drug-induced phospholipidosis,"[15]; 0.3 µM, 24 h",0.28%
same,drug-induced phospholipidosis,"[15]; 0.3 µM, 48 h",-0.08%
same,drug-induced phospholipidosis,"[15]; 0.3 µM, 72 h",3.27%
same,drug-induced phospholipidosis,"[15]; 0.833333 µM, 24 h",1.11%
same,drug-induced phospholipidosis,"[15]; 0.833333 µM, 48 h",-3.86%
same,drug-induced phospholipidosis,"[15]; 0.833333 µM, 72 h",-0.257%
same,drug-induced phospholipidosis,"[15]; 3.33333 µM, 24 h",22.9%
same,drug-induced phospholipidosis,"[15]; 3.33333 µM, 48 h",22.6%
same,drug-induced phospholipidosis,"[15]; 3.33333 µM, 72 h",16.8%
same,drug-induced phospholipidosis,"[15]; 6.66667 µM, 24 h",61.8%
same,drug-induced phospholipidosis,"[15]; 6.66667 µM, 48 h",74.8%
same,drug-induced phospholipidosis,"[15]; 6.66667 µM, 72 h",61.6%
same,drug-induced phospholipidosis,"[15]; 10 µM, 24 h",79.9%
same,drug-induced phospholipidosis,"[15]; 10 µM, 48 h",87.4%
same,drug-induced phospholipidosis,"[15]; 10 µM, 72 h",86.2%
same,drug-induced phospholipidosis,"[15]; 30 µM, 24 h",96.4%
same,drug-induced phospholipidosis,"[15]; 30 µM, 48 h",108%
same,drug-induced phospholipidosis,"[15]; 30 µM, 72 h",116%
same,drug sensitivity score,[16],0
same,drug sensitivity score,[17],0
same,drug sensitivity score,[18],0.6
same,drug sensitivity score,[19],0
same,drug sensitivity score,[20],0
CC/C(=C(/c1ccc(OCCN(C)C)cc1)c1cccc(O)c1)c1ccccc1 [droloxifene],cell viability,[1]; 1 nM,95.8%
same,cell viability,[1]; 10 nM,99.1%
same,cell viability,[1]; 100 nM,93.7%
same,cell viability,[1]; 1000 nM,95.8%
same,cell viability,[1]; 10000 nM,92.6%
same,cell viability,[2]; 1 nM,100%
same,cell viability,[2]; 10 nM,96.2%
same,cell viability,[2]; 100 nM,98.7%
same,cell viability,[2]; 1000 nM,87.1%
same,cell viability,[2]; 10000 nM,11%
same,cell viability,[3]; 1 nM,87.1%
same,cell viability,[3]; 10 nM,101%
same,cell viability,[3]; 100 nM,96.9%
same,cell viability,[3]; 1000 nM,109%
same,cell viability,[3]; 10000 nM,48.8%
same,cell viability,[4]; 1 nM,97.7%
same,cell viability,[4]; 10 nM,91.5%
same,cell viability,[4]; 100 nM,102%
same,cell viability,[4]; 1000 nM,96%
same,cell viability,[4]; 10000 nM,75.5%
same,cell viability,[5]; 1 nM,100%
same,cell viability,[5]; 10 nM,97.1%
same,cell viability,[5]; 100 nM,92.5%
same,cell viability,[5]; 1000 nM,97.4%
same,cell viability,[5]; 10000 nM,43.8%
same,SARS-CoV-2 infection rate,[6]; 0.3 µM,93%
same,SARS-CoV-2 infection rate,[6]; 3 µM,64%
same,SARS-CoV-2 infection rate,[6]; 10 µM,13%
same,SARS-CoV-2 infection rate,[6]; 30 µM,39%
same,morphology score,[7]; 0.3 µM,0.24
same,morphology score,[7]; 3 µM,0.61
same,morphology score,[7]; 10 µM,0.81
same,morphology score,[7]; 30 µM,0.15
same,relative viability EC50,[8],> 10 µM
same,relative viability EC50,[9],2.02 µM
same,relative viability EC50,[10],3.84 µM
same,relative viability EC50,[11],> 10 µM
same,relative viability EC50,[12],2.8 µM
same,phospholipidosis EC50,[13]; 24 h,1.57 µM
same,phospholipidosis EC50,[13]; 48 h,3.25 µM
same,phospholipidosis EC50,[13]; 72 h,3.45 µM
same,cell count,[14]; 0.3 µM,102%
same,cell count,[14]; 3 µM,113%
same,cell count,[14]; 10 µM,110%
same,cell count,[14]; 30 µM,102%
same,drug-induced phospholipidosis,"[15]; 0.3 µM, 24 h",2.02%
same,drug-induced phospholipidosis,"[15]; 0.3 µM, 48 h",8.07%
same,drug-induced phospholipidosis,"[15]; 0.3 µM, 72 h",3.83%
same,drug-induced phospholipidosis,"[15]; 0.833333 µM, 24 h",14.1%
same,drug-induced phospholipidosis,"[15]; 0.833333 µM, 48 h",8.41%
same,drug-induced phospholipidosis,"[15]; 0.833333 µM, 72 h",3.63%
same,drug-induced phospholipidosis,"[15]; 3.33333 µM, 24 h",52.7%
same,drug-induced phospholipidosis,"[15]; 3.33333 µM, 48 h",50.9%
same,drug-induced phospholipidosis,"[15]; 3.33333 µM, 72 h",41.9%
same,drug-induced phospholipidosis,"[15]; 6.66667 µM, 24 h",74.9%
same,drug-induced phospholipidosis,"[15]; 6.66667 µM, 48 h",81.7%
same,drug-induced phospholipidosis,"[15]; 6.66667 µM, 72 h",82%
same,drug-induced phospholipidosis,"[15]; 10 µM, 24 h",75.2%
same,drug-induced phospholipidosis,"[15]; 10 µM, 48 h",87.7%
same,drug-induced phospholipidosis,"[15]; 10 µM, 72 h",85.5%
same,drug-induced phospholipidosis,"[15]; 30 µM, 24 h",51.7%
same,drug sensitivity score,[16],0
same,drug sensitivity score,[17],7.1
same,drug sensitivity score,[18],2.2
same,drug sensitivity score,[19],1.5
same,drug sensitivity score,[20],3.4
